Values quoted from earlier work as cited in article PMC7909736 (Pharmaceutical Research, 2021).

Settings: share rate of 10 s^−1, room temperature

In the case of `CC(=CCCCOCC(O)CO)CCCC(C)CCCC(C)C` (stereo not shown) [Formulation C17MGE, mono-O-(5,9, 13-trimethyl-4-tetradecenyl) glycerol ester], the Viscosity is given as 0.47 Pa·s.
